Laboratory results published in patent US20240309043A1, “THERAPEUTICALLY ACTIVE STEROIDAL DERIVATIVES” (Organon R&D Finland Ltd., priority 2017, published 2024).

Experiments:
Format in all cases: biochemical
[1] = target: T1, recombinant human 17β-HSD1 (Homo sapiens, UniProt P14061); test: Inhibition of recombinant human 17β-HSD1; conditions: inhibitor 100 nM; 30 nM estrone, 1 mM NADPH, 30 min RT
T1 construct: made in house; host or cells: Sd9 (Sf9) insect cells, baculovirus (Bac to Bac Expression System)
T1 sequence (P14061 1-328): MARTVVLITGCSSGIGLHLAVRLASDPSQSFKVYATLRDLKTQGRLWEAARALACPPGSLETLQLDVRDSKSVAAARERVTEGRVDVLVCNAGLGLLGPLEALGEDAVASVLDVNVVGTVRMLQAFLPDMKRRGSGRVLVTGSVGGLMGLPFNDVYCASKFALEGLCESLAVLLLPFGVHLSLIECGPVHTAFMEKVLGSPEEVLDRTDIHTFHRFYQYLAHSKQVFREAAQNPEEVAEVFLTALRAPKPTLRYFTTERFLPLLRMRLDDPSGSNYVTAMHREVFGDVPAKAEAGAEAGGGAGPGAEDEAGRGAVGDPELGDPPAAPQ
Summary of the method: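 Microsomes from Sf9 cells expressing human 17β-HSD1 (1 μg/ml) were incubated for 30 min at RT in 20 mM KH2PO4 pH 7.4 with 30 nM ³H-estrone, 1 mM NADPH and inhibitor at 1 μM or 0.1 μM (1% DMSO). Estrone-to-estradiol conversion was measured by radio-HPLC after TCA stop, and % inhibition was taken as 100 − % conversion.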

[2] = target: T2, recombinant human 17β-HSD2 (Homo sapiens, UniProt P37059); test: Inhibition of recombinant human 17β-HSD2; conditions: inhibitor 1 μM; 50 nM estradiol, 1 mM NADH, 30 min RT
T2 construct: made in house; host or cells: Sd9 (Sf9) insect cells, baculovirus (Bac to Bac Expression System)
T2 sequence (P37059 1-387): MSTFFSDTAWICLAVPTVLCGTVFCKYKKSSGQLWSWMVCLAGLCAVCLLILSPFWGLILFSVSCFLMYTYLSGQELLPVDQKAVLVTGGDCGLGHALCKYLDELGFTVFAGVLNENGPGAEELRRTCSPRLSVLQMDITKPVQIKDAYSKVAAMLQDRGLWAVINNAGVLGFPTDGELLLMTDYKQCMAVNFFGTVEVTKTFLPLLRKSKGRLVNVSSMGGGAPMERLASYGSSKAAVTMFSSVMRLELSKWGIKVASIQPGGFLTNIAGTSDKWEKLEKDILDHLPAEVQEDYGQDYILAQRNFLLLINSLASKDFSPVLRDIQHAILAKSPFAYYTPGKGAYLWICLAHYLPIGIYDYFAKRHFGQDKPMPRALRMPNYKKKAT
Summary of the method: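 Sf9 baculovirus-expressed enzyme membrane extract (4 μg/ml) incubated 30 min at RT in 20 mM KH2PO4 pH 8.5 with 50 nM estradiol (³H-tracer) and 1 mM NADH, inhibitor at 1 μM or 0.1 μM, 1% DMSO. TCA-stopped; estradiol-to-estrone conversion by radio-HPLC, % inhibition = 100 − % conversion.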

[3] = tested on: HSD1 enzyme that is expressed in rabbit placenta tissue; test: Inhibition of E1 to E2 conversion in rabbit placenta tissue homogenate; conditions: inhibitor 100 nM, 30 nM estrone, 30 min

Row | SMILES | inhibition at 0.1 µM [1] | inhibition at 1 µM [2] | Rabbit placenta inhibition % @100 nM [3]
1 | C[C@]12CCC3c4ccc(Cl)cc4CCC3C1[C@H](CCC(=O)Nc1cnccn1)C/C2=N\O (stereo partly drawn) [Compound 74, 3-((13S,15R,E)-3-chloro-17-(hydroxyimino)-13-methyl-7,8,9,11,12,13,14,15,16,17-decahydro-6H-cyclopenta[a]phenanthren-15-yl)-N-(pyrazin-2-yl)propanamide] | 27% | 2% | 13%
2 | Cc1ccc(NC(=O)CC[C@@H]2C/C(=N\O)[C@@]3(C)CCC4c5ccc(Cl)cc5CCC4C23)nn1 (stereo partly drawn) [Compound 76, 3-((13S,15R,E)-3-chloro-17-(hydroxyimino)-13-methyl-7,8,9,11,12,13,14,15,16,17-decahydro-6H-cyclopenta[a]phenanthren-15-yl)-N-(6-methylpyridazin-3-yl)propanamide] | 33% | 4% | 56%
3 | C[C@]12CCC3c4ccc(Cl)cc4CCC3C1[C@H](CCC(=O)Nc1ccc(N3CCOCC3)cn1)C/C2=N\O (stereo partly drawn) [Compound 78, 3-((13S,15R,E)-3-chloro-17-(hydroxyimino)-13-methyl-7,8,9,11,12,13,14,15,16,17-decahydro-6H-cyclopenta[a]phenanthren-15-yl)-N-(5-morpholinopyridin-2-yl)propanamide] | 76% | 1% | 37%
4 | CN(C(=O)CC[C@@H]1C/C(=N\O)[C@@]2(C)CCC3c4ccccc4CCC3C12)C1CCOCC1 (stereo partly drawn) [Compound 80, 3-((13S,15R,E)-17-(hydroxyimino)-13-methyl-7,8,9,11,12,13,14,15,16,17-decahydro-6H-cyclopenta[a]phenanthren-15-yl)-N-methyl-N-(tetrahydro-2H-pyran-4-yl)propanamide] | 32% | 4% | 3%
5 | C[C@]12CCC3c4ccccc4CCC3C1[C@H](CCC(=O)Nc1cccnn1)C/C2=N\O (stereo partly drawn) [Compound 82] | 17% | 7% | 18%
6 | CN1CCN(c2ccc(NC(=O)CC[C@@H]3C/C(=N\O)[C@@]4(C)CCC5c6ccccc6CCC5C34)nc2)CC1 (stereo partly drawn) [Compound 86, 3-((13S,15R,E)-17-(hydroxyimino)-13-methyl-7,8,9,11,12,13,14,15,16,17-decahydro-6H-cyclopenta[a]phenanthren-15-yl)-N-(5-(4-methylpiperazin-1-yl)pyridin-2-yl)propanamide] | 61% | 6% | 51%
7 | Cc1ccnc(NC(=O)CC[C@@H]2C/C(=N\O)[C@@]3(C)CCC4c5ccccc5CCC4C23)c1 (stereo partly drawn) [Compound 88, 3-((13S,15R,E)-17-(hydroxyimino)-13-methyl-7,8,9,11,12,13,14,15,16,17-decahydro-6H-cyclopenta[a]phenanthren-15-yl)-N-(4-methylpyridin-2-yl)propanamide] | 65% | -2% | 10%
8 | CN(C)C(=O)c1ccc(NC(=O)CC[C@@H]2C/C(=N\O)[C@@]3(C)CCC4c5ccccc5CCC4C23)nc1 (stereo partly drawn) [Compound 92, 6-(3-((13S,15R,E)-17-(hydroxyimino)-13-methyl-7,8,9,11,12,13,14,15,16,17-decahydro-6H-cyclopenta[a]phenanthren-15-yl)propanamido)-N,N-dimethylnicotinamide] | 37% | 9% | 15%
9 | C[C@]12CCC3c4ccccc4CCC3C1[C@H](CCC(=O)Nc1cc3c([nH]c1=O)CCCC3)C/C2=N\O (stereo partly drawn) [Compound 94, 3-((13S,15R,E)-17-(hydroxyimino)-13-methyl-7,8,9,11,12,13,14,15,16,17-decahydro-6H-cyclopenta[a]phenanthren-15-yl)-N-(2-oxo-1,2,5,6,7,8-hexahydroquinolin-3-yl)propanamide] | 63% | 0% | 8%
10 | C[C@]12CCC3c4ccccc4CCC3C1[C@H](CCC(=O)Nc1ccc(C#N)cn1)C/C2=N\O (stereo partly drawn) [Compound 100, N-(5-cyanopyridin-2-yl)-3-((13S,15R,E)-17-(hydroxyimino)-13-methyl-7,8,9,11,12,13,14,15,16,17-decahydro-6H-cyclopenta[a]phenanthren-15-yl)propanamide] | 51% | -2% | 12%
11 | C[C@]12CCC3c4ccccc4CCC3C1[C@H](CCC(=O)Nc1ncccc1O)C/C2=N\O (stereo partly drawn) [Compound 102, 3-((13S,15R,E)-17-(hydroxyimino)-13-methyl-7,8,9,11,12,13,14,15,16,17-decahydro-6H-cyclopenta[a]phenanthren-15-yl)-N-(3-hydroxypyridin-2-yl)propanamide] | 57% | 20% | 1%
12 | C[C@]12CCC3c4ccccc4CCC3C1[C@H](CCC(=O)Nc1ccccn1)C/C2=N\O (stereo partly drawn) [Compound 104, 3-((13S,15R,E)-17-(hydroxyimino)-13-methyl-7,8,9,11,12,13,14,15,16,17-decahydro-6H-cyclopenta[a]phenanthren-15-yl)-N-(pyridin-2-yl)propanamide] | 64% | -13% | 9%
13 | CN1CCN(c2ccc(NC(=O)CC[C@@H]3C/C(=N\O)[C@@]4(C)CCC5c6cccc(F)c6CCC5C34)nc2)CC1 (stereo partly drawn) [Compound 116, 3-((13S,15R,E)-4-fluoro-17-(hydroxyimino)-13-methyl-7,8,9,11,12,13,14,15,16,17-decahydro-6H-cyclopenta[a]phenanthren-15-yl)-N-(5-(4-methylpiperazin-1-yl)pyridin-2-yl)propanamide] | 85% | 26% | 76%
14 | CNC(=O)CC[C@@H]1C/C(=N\O)[C@@]2(C)CCC3c4cccc(F)c4CCC3C12 (stereo partly drawn) [Compound 118, 3-((13S,15R,E)-4-fluoro-17-(hydroxyimino)-13-methyl-7,8,9,11,12,13,14,15,16,17-decahydro-6H-cyclopenta[a]phenanthren-15-yl)-N-methylpropanamide] | 43% | 2% | −1%
15 | CN(C)C(=O)CC[C@@H]1C/C(=N\O)[C@@]2(C)CCC3c4cccc(F)c4CCC3C12 (stereo partly drawn) [Compound 120, 3-((13S,15R,E)-4-fluoro-17-(hydroxyimino)-13-methyl-7,8,9,11,12,13,14,15,16,17-decahydro-6H-cyclopenta[a]phenanthren-15-yl)-N,N-dimethylpropanamide] | 57% | 2% | 9%
16 | C[C@]12CCC3c4cccc(F)c4CCC3C1[C@H](CCC(=O)NC1CCOCC1)C/C2=N\O (stereo partly drawn) [Compound 122, 3-((13S,15R,E)-4-fluoro-17-(hydroxyimino)-13-methyl-7,8,9,11,12,13,14,15,16,17-decahydro-6H-cyclopenta[a]phenanthren-15-yl)-N-(tetrahydro-2H-pyran-4-yl)propanamide] | 67% | 6% | 4%
17 | C[C@]12CCC3c4cccc(F)c4CCC3C1[C@H](CCC(=O)NC1CCCCC1)C/C2=N\O (stereo partly drawn) [Compound 124, N-Cyclohexyl-3-((13S,15R,E)-4-fluoro-17-(hydroxyimino)-13-methyl-7,8,9,11,12,13,14,15,16,17-decahydro-6H-cyclopenta[a]phenanthren-15-yl)propanamide] | 86% | 4% | 4%
18 | C[C@]12CCC3c4cccc(F)c4CCC3C1[C@H](CCC(=O)Nc1cnccn1)C/C2=N\O (stereo partly drawn) [Compound 126, 3-((13S,15R,E)-4-fluoro-17-(hydroxyimino)-13-methyl-7,8,9,11,12,13,14,15,16,17-decahydro-6H-cyclopenta[a]phenanthren-15-yl)-N-(pyrazin-2-yl)propanamide] | 53% | 3% | 26%
